According to patent publication US20120184562A1, “1,6- AND 1,8-NAPHTHYRIDINES” (priority 2011, published 2012):
Counter-ions that a name gives are not always drawn. Like-named read-outs stand apart in the source and are kept apart here.

Tests used:
[1] = test system: SW620 human colon cancer cells; experiment: SW620 Cell Viability Assay; format: cell-based; details: SW-620, 96 h, 4 days incubation, CellTiter-Glo Luminescent Cell Viability Assay, read-out: Cellular EC50 (μM) SW620
Method: SW620 Cell Viability Assay
1. Cell Plate Preparation: SW620 human colon cancer cells (known to express DYRK1B), obtained from ATCC, were seeded into 96-well plates at 3×10^3 cells/well in 50 μL of media. • Harvested the required number of cells (counts & viability determined by Guava Viacount). • Centrifuge cells to pellet and removed supernant. • Resuspended in growth media (50 μL/well) & pipetted thoroughly to break up clumps. • Setup for ˜100 wells/plate, therefore, VT=5 mL/plate @ […]. 1A. Some cells (S—) were allowed to attach for 24 hrs, serum starved for 48 hrs, and then followed with drug treatments. Test compound solution were prepared in regular corresponding media supplemented with serum. 2. Test Compound Preparation: Test compounds were solubilized in either DMSO or media and prepared at various stock concentrations. • All compounds were incubated at 37° C. for 30 minutes and vortexed. • (5 mM stocks of test compound were prepared for non-soluble compounds)
• The 10 mM test compound stock was diluted to a concentration of 100× the final Cmax concentration. • Then the test compound stock is diluted 50-fold in media and/or second compound for a final Cmax concentration in the test compound plate. • The Cmax in the test compound plate (2% DMSO) is 2-fold higher than the final Cmax in the cell plate (60 uL titrations were 1:3). 4. Viability Assay: This assay was performed as follows: • Transfer 50 μL of test compound solution per well from the test compound plate onto the cell plate prepared in Step #1. • Mix the plate with treated cells by pipetting up and down three times with 200 μL multi-channel pipette. • Incubate the cells in 5% CO2 incubator @ 37° C. for 4 days. • Run the CellTiter-Glo™ Luminescent Cell Viability Assay.
The results of this assay, given as EC50 values, indicate the concentration of test compound that inhibits tumor cell proliferation by 50%.

Human DYRK1B = target: T1, Human DYRK1B (Homo sapiens, UniProt Q9Y463); experiment: DYRK1B Kinase TR-FRET (IMAP-Tb) Assay; format: biochemical
T1 construct: purchased Invitrogen PR8350B (former PV4649)
T1 sequence (Q9Y463 whole entry): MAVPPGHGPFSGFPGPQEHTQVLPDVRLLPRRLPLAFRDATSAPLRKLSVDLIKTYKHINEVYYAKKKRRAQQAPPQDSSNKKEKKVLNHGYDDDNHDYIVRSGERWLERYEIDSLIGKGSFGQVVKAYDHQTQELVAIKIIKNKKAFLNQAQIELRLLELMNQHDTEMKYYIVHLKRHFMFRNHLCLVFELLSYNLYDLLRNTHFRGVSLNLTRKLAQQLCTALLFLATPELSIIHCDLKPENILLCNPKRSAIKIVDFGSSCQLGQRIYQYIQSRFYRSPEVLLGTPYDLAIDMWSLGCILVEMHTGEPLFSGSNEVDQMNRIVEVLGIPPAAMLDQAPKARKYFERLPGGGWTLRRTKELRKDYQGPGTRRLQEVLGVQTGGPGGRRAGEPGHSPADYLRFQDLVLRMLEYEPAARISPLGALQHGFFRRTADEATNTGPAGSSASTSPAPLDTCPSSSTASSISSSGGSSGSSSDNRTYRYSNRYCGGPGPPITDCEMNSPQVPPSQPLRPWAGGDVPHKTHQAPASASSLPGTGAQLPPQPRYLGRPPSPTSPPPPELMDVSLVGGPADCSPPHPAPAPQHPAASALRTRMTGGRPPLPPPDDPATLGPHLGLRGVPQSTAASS
Source text: DYRK1B Kinase TR-FRET (IMAP-Tb) Assay The kinase TR-FRET (IMAP-Tb) assay uses a fluorescence labeled substrate peptide in the kinase reaction. Upon phosphorylation by the kinase, phosphopeptide is produced, which will be detected by the binding solution provided in IMAP TR-FRET binding kit. After the completion of the kinase reaction, the reaction will be stopped by adding the binding solution containing terbium tracer. This tracer is immobilized on the surface of the IMAP beads, which also contain metal ions on the beads that bind to the phospho-groups of the products. Thus the phosphorylated product of the reaction can enter into close proximity to the tracer, producing resonance energy transfer. Due to the long lifetime of terbium (Tb) fluorescence the detection can be run in time resolved mode, which virtually eliminates fluorescence interference from assay components or compounds. The TR-FRET signal measurement from this assay, given as an IC50 measurement, is a measure of a test compound's ability to interfere with the phosphorylation of the peptide substrate, that is it inhibits the phosphorylation of the substrate peptide by DYRK1B, and is thus a measure of the test compound's ability to inhibit the activity of DYRK1B. […] Human DYRK1B: from Invitrogen. Part #PR8350B (former PV4649) • 2. Substrate Peptide: in-house synthesized: RRRFRPASPLRGPPK • 3. IMAP TR-FRET IPP Explorer Kit: from Molecular Devices. Part #R8157 • 4. Kinase Assay Buffer (KAB): 10 mM HEPES pH 7.0, 50 mM NaCl, 5 mM MgCl2, 1 mM DTT, 1 mM NaVO4, 200 μg/mL BSA (0.02%) • 5. Assay Plate: Remp polypropylene clear 384-well microplate. Cat#23490-102 • 6. Detection Plate: Costa black 384-well microplate. Cat #3710 Assay Procedure: This assay was performed as follows: • 1. Transfer 1.5 μL of 20× compound solution to each well of an assay plate. • 2. Add to each well 22.5 μL of KAB Buffer. • 3. Add to each well 3 μL of the solution of DYRK1B and ATP. […] Add to each well 3 μL of the substrate peptide. The assay concentration is 1.0 μM • 5. Incubate the assay plates at 37° C. for 60 minutes. • 6. Add 18 μL of Detection Solution (1:800 diluted Progress bead stock, 1:400 diluted Tb stock, 80% Buffer A, and 20% Buffer B) into each well of detection plates. • 7. Transfer 6 μL of assay solution from the assay plate to the detection plate. • 8. Shake detection plates for 30 minutes. • 9. Read plates in Envision with wavelength set at excitation 340 nm for Tb, emission 490 nm, and […] 520 nm. • 10. Calculation: TR-FRET Signal=(Reading at […]/Reading at 490 nM)×2000000

Human DYRK1A = target: T2, Human DYRK1A (Homo sapiens, UniProt Q13627); experiment: DYRK1A Kinase TR-FRET (IMAP-Tb) Assay; format: biochemical; details: TR-FRET (IMAP-Tb); ATP 70 μM; 37° C., 60 minutes; average of multiple runs; read-out: Enzyme IC50 (μM) DYRK1A
T2 construct: purchased Invitrogen PV3997
Source text: DYRK1A Kinase TR-FRET (IMAP-Tb) Assay
The kinase TR-FRET (IMAP-Tb) assay uses a fluorescence labeled substrate peptide in the kinase reaction. Upon phosphorylation by the kinase, phosphopeptide is produced, which will be detected by the binding solution provided in IMAP TR-FRET binding kit. After the completion of the kinase reaction, the reaction will be stopped by adding the binding solution containing terbium tracer. This tracer is immobilized on the surface of the IMAP beads, which also contain metal ions on the beads that bind to the phospho-groups of the products. Thus the phosphorylated product of the reaction can enter into close proximity to the tracer, producing resonance energy transfer. Due to the long lifetime of terbium (Tb) fluorescence the detection can be run in time resolved mode, which virtually eliminates fluorescence interference from assay components or compounds.
The TR-FRET signal measurement from this assay, given as an IC50 measurement, is a measure of a test compound's ability to interfere with the phosphorylation of the peptide substrate, that is it inhibits the phosphorylation of the substrate peptide by DYRK1A, and is thus a measure of the test compound's ability to inhibit the activity of DYRK1A.
• 1. Human DYRK1A: from Invitrogen. Part #PV3997 • 2. Substrate Peptide: […] • 3. IMAP TR-FRET IPP Explorer Kit: from Molecular Devices. Part #R8157 • 4. Kinase Assay Buffer (KAB): 10 mM HEPES pH 7.0, 50 mM NaCl, 5 mM MgCl2, 1 mM DTT, 1 mM NaVO4, 200 μg/mL BSA (0.02%) • 5. Assay Plate: Remp polypropylene clear 384-well microplate. […] Detection Plate: Costa black 384-well microplate. […] Transfer 1.5 μL of 20× compound solution to each well of an assay plate. • 2. Add to each well 22.5 μL of KAB Buffer. • 3. Add to each well 3 μL of the solution of DYRK1A and ATP. […] Add to each well 3 μL of the substrate peptide. The assay concentration is 1.0 μM • 5. Incubate the assay plates at 37° C. for 60 minutes. • 6. Add 18 μL of Detection Solution (1:800 diluted Progress bead stock, 1:400 diluted Tb stock, 80% Buffer A, and 20% Buffer B) into each well of detection plates. • 7. Transfer 6 μL of assay solution from the assay plate to the detection plate. • 8. Shake detection plates for 30 minutes. • 9. Read plates in Envision with wavelength set at excitation 340 nm for Tb, emission 490 nm, and […].

[2] = TR-FRET (IMAP-Tb), ATP 70 μM, 37° C., 60 minutes, average of multiple runs, read-out: Enzyme IC50 (μM) DYRK1B

SMILES	EC50 [1] [µM]	IC50 (Human DYRK1B; [2]) [µM]	IC50 (Human DYRK1A) [µM]	IC50 (Human DYRK1B) [µM]
COC(=O)c1ccc(Cl)c(NC(=O)c2cc3cnc(N4CCN(C)CC4)cc3[nH]c2=O)c1 [Example 73, 4-Chloro-3-{[7-(4-methyl-piperazin-1-yl)-2-oxo-1,2-dihydro-[1,6]naphthyridine-3-carbonyl]-amino}-benzoic acid methyl ester]	> 10	0.96	0.425	
COc1ccc2cc(C(=O)Nc3cc(C(=O)NC(CCN)c4ccccc4)ccc3Cl)c(=O)[nH]c2n1 (stereo not shown) [Example 101, N-(5-(3-Amino-1-phenylpropylcarbamoyl)-2-chlorophenyl)-7-methoxy-2-oxo-1,2-dihydro-1,8-naphthyridine-3-carboxamide]	0.0273	0.0527	0.0392	
COc1cc2[nH]c(=O)c(C(=O)Nc3cc(C(=O)NC(CN)c4ccsc4)ccc3Cl)cc2cn1 (stereo not shown) [Example 71, 7-Methoxy-2-oxo-1,2-dihydro-[1,6]naphthyridine-3-carboxylic acid [5-(2-amino-1-thiophen-3-yl-ethylcarbamoyl)-2-chloro-phenyl]-amide; hydrochloride]	0.137			< 0.0046
COc1cc2[nH]c(=O)c(C(=O)Nc3cc(C(=O)NC(CCN)c4ccsc4)ccc3C)cc2cn1 (stereo not shown) [Example 63, 7-Methoxy-2-oxo-1,2-dihydro-[1,6]naphthyridine-3-carboxylic acid [5-(3-amino-1-thiophen-3-yl-propylcarbamoyl)-2-methyl-phenyl]-amide]	0.205	0.023	0.0046	
COc1cc2[nH]c(=O)c(C(=O)Nc3cc(C(=O)NC(CCN)c4cccc(Cl)c4)ccc3C)cc2cn1 (stereo not shown) [Example 65, 7-Methoxy-2-oxo-1,2-dihydro-[1,6]naphthyridine-3-carboxylic acid {5-[3-amino-1-(3-chloro-phenyl)-propylcarbamoyl]-2-methyl-phenyl}-amide; hydrochloride]	0.915	0.21	0.0974	
COc1ccc2cc(C(=O)Nc3cc(C(=O)NCc4cccc(Cl)c4)ccc3Cl)c(=O)[nH]c2n1 [Example 95, N-(2-Chloro-5-(3-chlorobenzylcarbamoyl)phenyl)-7-methoxy-2-oxo-1,2-dihydro-1,8-naphthyridine-3-carboxamide]	1.24	0.047	0.019	
COc1cc2[nH]c(=O)c(C(=O)Nc3cc(C(=O)NCc4cccs4)ccc3C)cc2cn1 [Example 37, 7-Methoxy-2-oxo-1,2-dihydro-[1,6]naphthyridine-3-carboxylic acid {2-methyl-5-[(thiophen-2-ylmethyl)-carbamoyl]-phenyl}-amide]	0.47	0.917	0.588	
COC(=O)c1ccc(Cl)c(NC(=O)c2cc3ccc(N4CCN(C)CC4)nc3[nH]c2=O)c1 [Example 88, 4-Chloro-3-{[7-(4-methyl-piperazin-1-yl)-2-oxo-1,2-dihydro-[1,8]naphthyridine-3-carbonyl]-amino}-benzoic acid methyl ester]	1.53	0.513	0.451	
COc1cc2[nH]c(=O)c(C(=O)Nc3cc(C(=O)NC(CN)c4cccc(Cl)c4)ccc3C)cc2cn1 (stereo not shown) [Example 57, 7-Methoxy-2-oxo-1,2-dihydro-[1,6]naphthyridine-3-carboxylic acid {5-[2-amino-1-(3-chloro-phenyl)-ethylcarbamoyl]-2-methyl-phenyl}-amide; hydrochloride]	0.496	0.146	0.0512	
COC(=O)c1ccc(Cl)c(NC(=O)c2cc3ccc(OC)nc3[nH]c2=O)c1 [Example 90, 4-Chloro-3-[(7-methoxy-2-oxo-1,2-dihydro-[1,8]naphthyridine-3-carbonyl)-amino]-benzoic acid methyl ester]	> 10	0.168	> 10	
COc1cc2[nH]c(=O)c(C(=O)Nc3cc(C(=O)NC(CN)c4ccccc4)ccc3C)cc2cn1 (stereo not shown) [Example 55, 7-Methoxy-2-oxo-1,2-dihydro-[1,6]naphthyridine-3-carboxylic acid [5-(2-amino-1-phenyl-ethylcarbamoyl)-2-methyl-phenyl]-amide; hydrochloride]	0.68	0.0915	0.0506	
COc1cc2[nH]c(=O)c(C(=O)Nc3cc(C(=O)NC(CCN)c4ccsc4)ccc3Cl)cc2cn1 (stereo not shown) [Example 53, 7-Methoxy-2-oxo-1,2-dihydro-[1,6]naphthyridine-3-carboxylic acid [5-(3-amino-1-thiophen-3-yl-propylcarbamoyl)-2-chloro-phenyl]-amide]	0.0524			0.0138
